The target in this assay is human histamine H4 receptor (Homo sapiens, UniProt Q9H3N8). Put plainly: biochemical.
Sequence of human histamine H4 receptor (Q9H3N8 whole entry): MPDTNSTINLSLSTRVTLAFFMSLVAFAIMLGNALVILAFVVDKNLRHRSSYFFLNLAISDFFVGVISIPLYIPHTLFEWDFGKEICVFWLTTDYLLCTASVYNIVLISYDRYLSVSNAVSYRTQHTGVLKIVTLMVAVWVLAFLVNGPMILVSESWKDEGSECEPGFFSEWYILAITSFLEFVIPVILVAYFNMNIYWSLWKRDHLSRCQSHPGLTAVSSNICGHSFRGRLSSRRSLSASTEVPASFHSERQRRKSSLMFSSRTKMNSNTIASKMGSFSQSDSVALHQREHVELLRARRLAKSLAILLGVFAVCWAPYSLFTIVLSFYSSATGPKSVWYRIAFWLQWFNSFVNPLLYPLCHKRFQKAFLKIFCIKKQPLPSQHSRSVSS
`CN1CCN(C(=O)c2nc3ccccc3[nH]2)CC1` [Example 1, (1H-Benzoimidazol-2-yl)-(4-methyl-piperazin-1-yl)-methanone]: the Ki was 32 nM.
The figure for `CCN1CCN(C(=O)c2nc3ccccc3[nH]2)CC1` [Example 2, (1H-Benzoimidazol-2-yl)-(4-ethyl-piperazin-1-yl)-methanone] is 490 nM.
As for `CC1CN(C(=O)c2nc3ccccc3[nH]2)CCN1` (stereo not drawn) [Example 3, (1H-Benzoimidazol-2-yl)-(3-methyl-piperazin-1-yl)-methanone], the figure is 331 nM; as for `CN1CCCN(C(=O)c2nc3ccccc3[nH]2)CC1` [Example 4, (1H-Benzoimidazol-2-yl)-(4-methyl-[1,4]diazepan-1-yl)-methanone], 1400 nM; as for `CN1C2CCC1CC(NC(=O)c1nc3ccccc3[nH]1)C2` (stereo not drawn) [Example 5, 1H-Benzoimidazole-2-carboxylic acid (8-methyl-8-aza-bicyclo[3.2.1]oct-3-yl)-amide], 89 nM.
The figure for `CC1CN(C(=O)c2nc3cc(Cl)ccc3[nH]2)CCN1` (stereo not drawn) [Example 8, (5-Chloro-1H-benzoimidazol-2-yl)-(3-methyl-piperazin-1-yl)-methanone] is 300 nM; for `CCN1CCN(C(=O)c2nc3cc(F)c(F)cc3[nH]2)CC1` [Example 10, (5,6-Difluoro-1H-benzoimidazol-2-yl)-(4-ethyl-piperazin-1-yl)-methanone] it is 620 nM.
As for `CC1CN(C(=O)c2nc3cc(F)c(F)cc3[nH]2)CCN1` (stereo not drawn) [Example 11, (5,6-Difluoro-1H-benzoimidazol-2-yl)-(3-methyl-piperazin-1-yl)-methanone], the Ki worked out at 355 nM.
As for `CN1CCCN(C(=O)c2nc3cc(F)c(F)cc3[nH]2)CC1` [Example 12, (5,6-Difluoro-1H-benzoimidazol-2-yl)-(4-methyl-[1,4]diazepan-1-yl)-methanone], the figure is 807 nM; as for `CN1C2CCC1CC(NC(=O)c1nc3cc(F)c(F)cc3[nH]1)C2` (stereo not drawn) [Example 13, 5,6-Difluoro-1H-benzoimidazole-2-carboxylic acid (8-methyl-8-aza-bicyclo[3.2.1]oct-3-yl)-amide], 380 nM; as for `CN1CCN(C(=O)c2nc3cc(F)c(Cl)cc3[nH]2)CC1` [Example 14, (6-Chloro-5-fluoro-1H-benzoimidazol-2-yl)-(4-methyl-piperazin-1-yl)-methanone], 53 nM.
The figure for `O=C(c1nc2cc(F)c(Cl)cc2[nH]1)N1CCNCC1` [Example 15, (6-Chloro-5-fluoro-1H-benzoimidazol-2-yl)-piperazin-1-yl-methanone] is 216 nM; for `CN1CCCN(C(=O)c2nc3cc(F)c(Cl)cc3[nH]2)CC1` [Example 16, (6-Chloro-5-fluoro-1H-benzoimidazol-2-yl)-(4-methyl-[1,4]diazepan-1-yl)-methanone] it is 1300 nM.
As for `CN1C2CCC1CC(NC(=O)c1nc3cc(F)c(Cl)cc3[nH]1)C2` (stereo not drawn) [Example 17, 6-Chloro-5-fluoro-1H-benzoimidazole-2-carboxylic acid (8-methyl-8-aza-bicyclo[3.2.1]oct-3-yl)-amide], the figure is 535 nM; as for `Cc1cc2nc(C(=O)N3CCN(C)CC3)[nH]c2cc1Cl` [Example 18, (5-Chloro-6-methyl-1H-benzoimidazol-2-yl)-(4-methyl-piperazin-1-yl)-methanone], 226 nM.
`Cc1cc2nc(C(=O)N3CCNCC3)[nH]c2cc1Cl` [Example 19, (5-Chloro-6-methyl-1H-benzoimidazol-2-yl)-piperazin-1-yl-methanone] showed a Ki of 1000 nM.
Compound `Cc1cccc2[nH]c(C(=O)N3CCNC(C)C3)nc12` (stereo not drawn) [Example 20, (4-Methyl-1H-benzoimidazol-2-yl)-(3-methyl-piperazin-1-yl)-methanone] had a Ki of 156 nM.
As for `CCN1CCN(C(=O)c2nc3c(C)cccc3[nH]2)CC1` [Example 21, (4-Ethyl-piperazin-1-yl)-(4-methyl-1H-benzoimidazol-2-yl)-methanone], the figure is 468 nM.

One may read the Ki as the equilibrium dissociation constant of an inhibitor or competing ligand from its target.
